IC50 and melting point data for 19 compounds are collected here from patent publication US9593108B2, “Compounds and methods for antiviral treatment” (PTC Therapeutics, Inc., priority 2009, dated 2017).

The subject of data set [1] is HCV replicon RNA (GenBank Accession No. AJ242654). The data set is described as follows: HCV Replicon Assay (replicon RNA reduction and/or Fluc reporter signal). Format: cell-based, Hepatitis C virus. As to conditions: Hepatitis C virus, 72 h, replicon-containing cells cultured with test compound for up to 3 days. The procedure, abridged: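 Bicistronic replicon-containing cells cultured with compound for up to 3 days, with interferon as positive control. Inhibition quantified by replicon RNA reduction and/or Fluc reporter signal; IC50 values generally derived from replicon RNA reduction.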

Some results are limits rather than exact numbers.

Take `C[C@@H](NS(=O)(=O)c1ccc(-c2c(C#N)c3cc(C#N)cnc3n2C2CCC2)nc1)C(F)(F)F` [Cpd 107, 6-(3,5-dicyano-1-cyclobutyl-1H-pyrrolo[2,3-b]pyridin-2-yl)-N-[(2R)-1,1,1-trifluoropropan-2-yl]pyridine-3-sulfonamide]: the melting point was in the range of 202 to 203 °C. Moreover, in data set [1], the IC50 is under 500 nM.
The compound `C[C@H](NS(=O)(=O)c1ccc(-c2c(C#N)c3cc(C#N)cnc3n2C2CCC2)nc1)C(F)(F)F` [Cpd 108, 6-(3,5-dicyano-1-cyclobutyl-1H-pyrrolo[2,3-b]pyridin-2-yl)-N-[(2S)-1,1,1-trifluoropropan-2-yl]pyridine-3-sulfonamide] registered a melting point of 203 to 204 °C. The 50% inhibitory concentration (IC50) in data set [1] is under 500 nM.
For the compound `C[C@H](NS(=O)(=O)c1cnc(-c2c(C#N)c3cc(C#N)cnc3n2C2CCC2)nc1)C(F)(F)F` [Cpd 109, 2-(3,5-dicyano-1-cyclobutyl-1H-pyrrolo[2,3-b]pyridin-2-yl)-N-[(2S)-1,1,1-trifluoropropan-2-yl]pyrimidine-5-sulfonamide], the melting point was 216 to 219 °C. For the same compound, in data set [1], the concentration for half-maximal inhibition (IC50) was under 500 nM.
The compound `C[C@H](NS(=O)(=O)c1ccc(-c2c(C#N)c3cc(C#N)cnc3n2C2CCC2)cc1)C(F)(F)F` [Cpd 110, 4-(3,5-dicyano-1-cyclobutyl-1H-pyrrolo[2,3-b]pyridin-2-yl)-N-[(2S)-1,1,1-trifluoropropan-2-yl]benzenesulfonamide] yielded a melting point of 241 to 243 °C. This compound also showed an IC50 in data set [1] of under 500 nM.
Compound `N#Cc1cnc2c(c1)c(C#N)c(-c1ccc(S(=O)(=O)NC3(C(F)(F)F)CC3)cn1)n2C1CCC1` [Cpd 111, 6-(3,5-dicyano-1-cyclobutyl-1H-pyrrolo[2,3-b]pyridin-2-yl)-N-[1-(trifluoromethyl)cyclopropyl]pyridine-3-sulfonamide] showed a melting point of 207 to 208 °C. Moreover, the IC50 in data set [1] is under 500 nM.
Taken in the same sequence, the figures for `N#Cc1cnc2c(c1)c(C#N)c(-c1ccc(S(=O)(=O)NC3(C(F)(F)F)CC3)cc1)n2C1CCC1` [Cpd 112, 4-(3,5-dicyano-1-cyclobutyl-1H-pyrrolo[2,3-b]pyridin-2-yl)-N-[1-(trifluoromethyl)cyclopropyl]benzenesulfonamide] were 231 to 233 °C and under 500 nM.
Taken in the same sequence, the figures for `CC1(NS(=O)(=O)c2ccc(-c3c(C#N)c4cc(C#N)cnc4n3C3CCC3)nc2)CC1` [Cpd 113, 6-(3,5-dicyano-1-cyclobutyl-1H-pyrrolo[2,3-b]pyridin-2-yl)-N-(1-methylcyclopropyl)pyridine-3-sulfonamide] were 198 to 200 °C and under 500 nM.
For the compound `CC1(NS(=O)(=O)c2cnc(-c3c(C#N)c4cc(C#N)cnc4n3C3CCC3)nc2)CC1` [Cpd 114, 2-(3,5-dicyano-1-cyclobutyl-1H-pyrrolo[2,3-b]pyridin-2-yl)-N-(1-methylcyclopropyl)pyrimidine-5-sulfonamide], the melting point was 229 to 231 °C. The compound further showed an IC50 in data set [1] of under 500 nM.
As to `C[C@H](NS(=O)(=O)c1ccc(-c2c(C#N)c3cc(C4CC4)cnc3n2C2CCC2)cc1)C(F)(F)F` [Cpd 115, 4-(3-cyano-1-cyclobutyl-5-cyclopropyl-1H-pyrrolo[2,3-b]pyridin-2-yl)-N-[(2S)-1,1,1-trifluoropropan-2-yl]benzenesulfonamide], the melting point lay within 196 to 203 °C. Besides, the IC50 in data set [1] is 500 to 2000 nM.
`C[C@@H](NS(=O)(=O)c1ccc(-c2c(C#N)c3cc(C4CC4)cnc3n2C2CCC2)cc1)C(F)(F)F` [Cpd 116, 4-(3-cyano-1-cyclobutyl-5-cyclopropyl-1H-pyrrolo[2,3-b]pyridin-2-yl)-N-[(2R)-1,1,1-trifluoropropan-2-yl]benzenesulfonamide] had a melting point of 190 to 195 °C. Besides, in data set [1], the IC50 is under 500 nM.
The compound `C[C@H](NS(=O)(=O)c1ccc(-c2c(C#N)c3cc(C4CC4)cnc3n2C2CCC2)nc1)C(F)(F)F` [Cpd 117, 6-(3-cyano-1-cyclobutyl-5-cyclopropyl-1H-pyrrolo[2,3-b]pyridin-2-yl)-N-[(2S)-1,1,1-trifluoropropan-2-yl]pyridine-3-sulfonamide] showed a melting point of 136 to 144 °C. Moreover, in data set [1], the half-inhibitory concentration (IC50) is under 500 nM.
As for `C[C@@H](NS(=O)(=O)c1ccc(-c2c(C#N)c3cc(C4CC4)cnc3n2C2CCC2)nc1)C(F)(F)F` [Cpd 118, 6-(3-cyano-1-cyclobutyl-5-cyclopropyl-1H-pyrrolo[2,3-b]pyridin-2-yl)-N-[(2R)-1,1,1-trifluoropropan-2-yl]pyridine-3-sulfonamide], the melting point was in the range of 138 to 147 °C. The compound also displayed an IC50 in data set [1] of under 500 nM.
Compound `C[C@H](NS(=O)(=O)c1cnc(-c2c(C#N)c3cc(C4CC4)cnc3n2C2CCC2)nc1)C(F)(F)F` [Cpd 119, 2-(3-cyano-1-cyclobutyl-5-cyclopropyl-1H-pyrrolo[2,3-b]pyridin-2-yl)-N-[(2S)-1,1,1-trifluoropropan-2-yl]pyrimidine-5-sulfonamide] had a melting point of 176 to 183 °C. Besides, the IC50 in data set [1] was under 500 nM.
Compound `CC(C)(NS(=O)(=O)c1ccc(-c2c(C#N)c3cc(C4CC4)cnc3n2C2CCC2)cc1)C(F)(F)F` [Cpd 121, 4-(3-cyano-1-cyclobutyl-5-cyclopropyl-1H-pyrrolo[2,3-b]pyridin-2-yl)-N-(1,1,1-trifluoro-2-methylpropan-2-yl)benzenesulfonamide] registered a melting point of 207 to 212 °C. In data set [1], the IC50 is under 500 nM.
For `C[C@H](NS(=O)(=O)c1ccc(-c2c(C#N)c3cc(OC(F)F)cnc3n2C2CCC2)nc1)C(F)(F)F` [Cpd 122, 6-[3-cyano-1-cyclobutyl-5-(difluoromethoxy)-1H-pyrrolo[2,3-b]pyridin-2-yl]-N-[(2S)-1,1,1-trifluoropropan-2-yl]pyridine-3-sulfonamide] the same measures were 155 to 156 °C and under 500 nM.
In the case of `N#Cc1c(-c2ccc(S(=O)(=O)NC3(C(F)(F)F)CC3)cn2)n(C2CCC2)c2ncc(C3CC3)cc12` [Cpd 124, 6-(3-cyano-1-cyclobutyl-5-cyclopropyl-1H-pyrrolo[2,3-b]pyridin-2-yl)-N-[1-(trifluoromethyl)cyclopropyl]pyridine-3-sulfonamide], the melting point was 163 to 171 °C. The IC50 in data set [1] was under 500 nM.
For the compound `CC(C)(C)NS(=O)(=O)c1ccc(-c2c(C#N)c3cc(C4CC4)cnc3n2C2CCC2)cc1` [Cpd 125, N-tert-butyl-4-(3-cyano-1-cyclobutyl-5-cyclopropyl-1H-pyrrolo[2,3-b]pyridin-2-yl)benzenesulfonamide], the melting point fell in the range of 210 to 215 °C. Besides, the IC50 in data set [1] is under 500 nM.
`CC1(NS(=O)(=O)c2ccc(-c3c(C#N)c4cc(C5CC5)cnc4n3C3CCC3)cc2)CC1` [Cpd 127, 4-(3-cyano-1-cyclobutyl-5-cyclopropyl-1H-pyrrolo[2,3-b]pyridin-2-yl)-N-(1-methylcyclopropyl)benzenesulfonamide] returned a melting point of 152 to 161 °C. The IC50 in data set [1] was under 500 nM.
On to `CC1(NS(=O)(=O)c2ccc(-c3c(C#N)c4cc(C5CC5)cnc4n3C3CCC3)nc2)CC1` [Cpd 128, 6-(3-cyano-1-cyclobutyl-5-cyclopropyl-1H-pyrrolo[2,3-b]pyridin-2-yl)-N-(1-methylcyclopropyl)pyridine-3-sulfonamide], for which the melting point fell in the range of 178 to 185 °C. Also, in data set [1], the IC50 is under 500 nM.
